Patent publication US6855710B2, “Substituted indolines with an inhibitory effect on various kinases and complexes of CDKs” (Boehringer Ingelheim Pharma KG, priority 1998, dated 2005)

| melting point | Structure (SMILES) |
| --- | --- |
| 121 to 123 °C | CCCCS(=O)(=O)N(CC(=O)N(C)C)c1ccc(N/C(=C2\C(=O)Nc3ccccc32)c2ccccc2)cc1 [Example 306, (Z)-3-{1-[4-(N-(dimethylaminocarbonylmethyl)-N-butylsulphonyl-amino)-phenylamino]-1-phenyl-methylidene}-2-indolinone] |
| 155 °C | CCS(=O)(=O)N(CC(=O)NCCN(C)C)c1ccc(N/C(=C2\C(=O)Nc3ccc([N+](=O)[O-])cc32)c2ccccc2)cc1 [Example 295, (Z)-3-{1-[4-(N-(2-dimethylamino-ethylaminocarbonylmethyl)-N-ethylsulphonyl-amino)-phenylamino]-1-phenyl-methylidene}-5-nitro-2-indolinone] |
| 267 to 269 °C | CCN(CC)CC(=O)Nc1ccc(N/C(=C2\C(=O)Nc3ccccc32)c2ccccc2)cc1.Cl |
| 209 to 211 °C | CCOC(=O)CN(C(=O)c1ccccc1)c1ccc(N/C(=C2\C(=O)Nc3ccccc32)c2ccccc2)cc1 [Example 360, (Z)-3-{1-[4-(N-ethoxycarbonylmethyl-N-benzoyl-amino)-phenylamino]-1-phenyl-methylidene}-2-indolinone] |
| 133 to 135 °C | CN(C)C(=O)CN(c1ccc(N/C(=C2\C(=O)Nc3ccccc32)c2ccccc2)cc1)S(=O)(=O)Cc1ccccc1 [Example 207, (Z)-3-{1-[4-(N-dimethylaminocarbonylmethyl-N-benzylsulphonyl-amino)-phenylamino]-1-phenyl-methylidene}-2-indolinone] |
| 228 to 230 °C | CC(=O)N(CCN(C)C)c1ccc(N/C(=C2\C(=O)Nc3ccc([N+](=O)[O-])cc32)c2ccccc2)cc1 [Example 328, (Z)-3-{1-[4-(N-(2-dimethylaminoethyl)-N-acetyl-amino)-phenylamino]-1-phenyl-methylidene}-5-nitro-2-indolinone] |
| 305 to 307 °C | CC(=O)N(C)c1ccc(N/C(=C2\C(=O)Nc3ccc([N+](=O)[O-])cc32)c2ccccc2)cc1 [Example 98, (Z)-3-{1-[4-(N-acetyl-N-methyl-amino)-phenylamino]-1-phenyl-methylidene}-5-nitro-2-indolinone] |

More lines, now with the values behind:

| Structure (SMILES) | melting point |
| --- | --- |
| CN(C(=O)CCNC(=O)OC(C)(C)C)c1ccc(N/C(=C2\C(=O)Nc3ccccc32)c2ccccc2)cc1 [Example 376, (Z)-3-{1-[4-(N-(2-tert.butoxycarbonylamino-ethylcarbonyl)-N-methyl-amino)-phenylamino]-1-phenyl-methylidene}-2-indolinone] | 246 to 248 °C |
| CC(C)(C)OC(=O)Nc1ccc(N/C(=C2\C(=O)Nc3ccccc32)c2ccccc2)cc1 [Example 28, (Z)-3-[1-(4-tert.butoxycarbonylamino-phenylamino)-1-phenyl-methylidene]-2-indolinone] | 244 to 246 °C |
| CCOC(=O)C1CCN(Cc2ccc(N/C(=C3\C(=O)Nc4ccc([N+](=O)[O-])cc43)c3ccccc3)cc2)CC1 [Example 176, (Z)-3-{1-[4-(4-ethoxycarbonyl-piperidinomethyl)-phenylamino]-1-phenyl-methylidene}-5-nitro-2-indolinone] | 194 °C |
| CS(=O)(=O)Nc1ccc(N/C(=C2\C(=O)Nc3ccc([N+](=O)[O-])cc32)c2ccccc2)cc1 [Example 196, (Z)-3-[(4-methylsulphonylamino-phenylamino)-1-phenyl-methylidene]-5-nitro-2-indolinone] | 344 to 346 °C |
| COc1ccc(/C(Nc2ccc(CN(C)C)cc2)=C2/C(=O)Nc3ccccc32)cc1 [Example 215, (Z)-3-[1-(4-dimethylaminomethyl-phenylamino)-1-(4-methoxyphenyl)-methylidene]-2-indolinone] | 206 to 207 °C |
| O=C1Nc2ccccc2/C1=C(/Nc1cccc(NC(=O)C(F)(F)F)c1)c1ccccc1 [Example 33, (Z)-3-[1-(3-trifluoroacetylamino-phenylamino)-1-phenyl-methylidene]-2-indolinone] | 273 to 276 °C |
